Assay results as given in patent US20200157151A1, “PEPTIDE COMPOUNDS, CONJUGATE COMPOUNDS AND USES THEREOF FOR TREATING INFLAMMATORY DISEASES” (TRANSFERT PLUS, S.E.C., priority 2017, published 2020).
“Also recorded” adds a separate entry of the source.

Legend:
[1] = test system: TNF-α-induced NFκB phosphorylation in human MDA-MB231 breast cancer cells; test: Inhibition of TNF-α-induced NFκB phosphorylation in MDA-MB231 cells; assay type: cell-based; conditions: 24 h pre-treatment, 100 ng/mL TNF-α 5 min, MDA-MB231, FIGS. 9 and 18
Text: FIG. 9A) Immunodetection of phosphorylated NFκB by TNF-α is shown.
(§1) FIGS. 9 and 10 are other examples of the Curcumin conjugate (KBC-201)'s effect on the TNF-α-induced signaling pathways in two other cancer cell models.
Results presented in FIGS. 18A and 18B show now that the peptide alone (KBP-201) can reduce the TNF-α-induced NFκB phosphorylation by about 30%.
In FIG. 18A, immunodetection of NFκB phosphorylation by TNF-α is shown.

[2] = test system: TNF-α-induced COX-2 expression in human HT-29 colon cancer cells; conditions: 2 h pre-treatment, 10 ng/mL TNF-α 24 h, HT-29, FIG. 6; compared to free Curcumin
Experimental: (§2) Cells were pre-treated for 2 h with indicated compounds in serum-free medium before the addition of 10 ng/mL TNF-α for 24 h. Cells were lysed and the levels protein expression of COX-2 were monitored by immunoblotting. […] For each sample, the COX-2 level was corrected for GAPDH (a loading control) and normalized to those seen in TNF-α control (value=100%).
as §2, with “the” for “the levels”, “expression levels” for “expression”

[3] = test system: TNF-α-induced IκB phosphorylation in human HT-29 colon cancer cells; test: Inhibition of TNF-α-induced IκB phosphorylation in HT-29 cells; assay type: cell-based; conditions: 24 h pre-treatment, 100 ng/mL TNF-α 5 min, HT-29, FIGS. 8 and 17; compared to Curcumin
Text: FIG. 8A) Immunodetection of IκB phosphorylation by TNF-α is shown.
One of the inflammatory pathways induced by TNF-α leads to the phosphorylation of IkB (FIG. 1), a key protein in inflammation. As expected, the addition of TNF-α to human HT-29 colon cancer cells triggered the phosphorylation of IkB (pIkB) (FIG. 8).
One of the inflammatory pathways induced by TNF-α leads to the phosphorylation IkB (see FIG. 1), a key protein in inflammation. It was observed that the addition of TNF-α to human HT-29 colon cancer cells triggered the phosphorylation of IkB (pIkB) (FIGS. 17A and 17B).

Sortilin receptor = target: T1, Sortilin receptor (Homo sapiens, UniProt Q99523); test: Sortilin-mediated uptake in HT-29 cells (siRNA silencing and competition with Sortilin ligands); assay type: cell-based; conditions: 5 μM
T1 construct: Sortilin-deficient (siSortilin) HT-29 colorectal cancer cells; endogenous in cells; host or cells: HT-29 human colorectal cancer cells
T1 sequence (Q99523 78-831): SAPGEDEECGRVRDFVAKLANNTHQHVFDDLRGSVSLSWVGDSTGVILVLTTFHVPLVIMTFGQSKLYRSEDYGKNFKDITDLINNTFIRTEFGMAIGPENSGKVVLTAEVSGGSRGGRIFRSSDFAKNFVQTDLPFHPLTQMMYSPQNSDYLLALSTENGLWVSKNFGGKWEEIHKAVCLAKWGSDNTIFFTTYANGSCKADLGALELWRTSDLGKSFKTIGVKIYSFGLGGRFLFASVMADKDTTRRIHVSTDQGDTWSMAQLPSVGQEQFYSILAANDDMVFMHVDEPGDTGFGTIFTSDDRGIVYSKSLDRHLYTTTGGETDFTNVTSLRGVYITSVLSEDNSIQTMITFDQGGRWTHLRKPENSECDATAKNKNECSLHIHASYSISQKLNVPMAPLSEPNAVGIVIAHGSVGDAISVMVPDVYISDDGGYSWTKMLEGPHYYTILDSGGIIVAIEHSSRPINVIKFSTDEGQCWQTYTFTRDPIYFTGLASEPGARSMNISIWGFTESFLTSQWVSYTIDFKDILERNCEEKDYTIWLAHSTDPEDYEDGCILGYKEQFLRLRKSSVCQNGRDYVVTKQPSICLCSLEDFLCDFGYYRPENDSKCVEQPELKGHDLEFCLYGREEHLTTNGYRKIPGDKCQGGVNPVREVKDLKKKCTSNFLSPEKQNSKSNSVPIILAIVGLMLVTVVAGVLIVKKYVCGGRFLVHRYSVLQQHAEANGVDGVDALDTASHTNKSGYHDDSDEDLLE
Experimental: FIG. 5 is a series of charts showing Sortilin-mediated uptake of KBC-201 in human colorectal cancer cells, FIG. 5A) Uptake of 5 μM of KBC-201 or free curcumin were performed at 37° C. in control (siScrambled) or Sortilin-deficient (siSortilin) HT-29 colorectal cancer cells. After a 2 h incubation, cells were trypsinized to remove non-internalized products, washed 3-times with ice-cold PBS and cell-associated fluorescence was quantified using a BD Accuri™ C6 flow cytometer. […] Cell-associated fluorescence uptake was quantified using a BD Accuri™ C6 flow cytometer.
(§3) The uptake of Curcumin conjugate or free Curcumin was measured as a function of time in human HT-29 colon cancer cells (FIG. 4). […] Indeed, the Curcumin conjugate (KBC-201) is less fluorescent by about 2-3 folds when compared to free Curcumin. […] The uptake of both KBC-201 and free Curcumin was next measured in the presence of Sortilin ligands (FIG. 5B). […] Taken together, data of the pharmacological inhibition using Sortilin ligands and the silencing of Sortlin expression confirm that the Curcumin conjugate is internalized via a Sortilin-dependent mechanism.

[4] = Stability at room temperature followed by absorbance over time; conditions: FIG. 11
Text: FIG. 11 is a graph showing absorbance of Curcumin conjugates and free Curcumin.

[5] = test system: human HT-29 colorectal cancer cells; test: Time-course uptake by flow cytometry (cell-associated fluorescence); assay type: cell-based; conditions: 5 μM, 37° C., HT-29 cells, FIG. 4B
Experimental: FIG. 4 is a series of charts illustrating higher and sustained uptake of KBC-201 (FIG. 4A). At the same concentration (5 μM), KBC-201 generates about half the fluorescence compared to free curcumin (Ex.: 488 nm, Em.: 530 nm) (FIG. 4B). Time-course uptake of KBC-201 (full line) and free curcumin (dotted line) in human HT-29 colorectal cancer cells. HT-29 cells were incubated at 37° C. with 5 μM of KBC-201 or curcumin at various times, trypsinized, washed, and cell-associated fluorescence uptake was quantified using a BD Accuri™ C6 flow cytometer.
as §3

[6] = test system: TNF-α-induced IκB phosphorylation in human SKOV3 ovarian cancer cells; test: Inhibition of TNF-α-induced IκB phosphorylation in SKOV3 cells; assay type: cell-based; conditions: 24 h pre-treatment, 100 ng/mL TNF-α 5 min, SKOV3, FIG. 10
Text: FIG. 10A) Immunodetection of IκB phosphorylation by TNF-α is shown.
as §1

Substance: Acetyl-YK(curcumin)SLRRK(curcumin)APRWDAPLRDPALRQLL (YKSLRRKAPRWDAPLRDPALRQLL) [KBC-201]
- Antagonism of TNF-α-induced phosphorylation of pro-inflammatory proteins (NFκB) [1]: more potent than free Curcumin
- Inhibition of TNFα-induced COX-2 expression [2]: stronger inhibition
- Inhibition of TNF-α-induced IkB phosphorylation [3]: stronger inhibition
- Uptake when Sortilin expression is reduced by siRNA (Sortilin receptor; 2 h, 37° C., siSortilin vs siScrambled HT-29 cells, FIG. 5A): strongly inhibited; also recorded: reduces KBC-201 uptake
- Uptake in the presence of Sortilin ligands (Sortilin receptor; excess free peptide (50 μM), neurotensin (10 μM) or progranulin (1 nM), HT-29 cells, FIG. 5B): inhibited the uptake; also recorded: inhibit the uptake of KBC-201
- Stability (absorbance over time) [4]: more stable
- Uptake over time (cell-associated fluorescence) [5]: higher and sustained uptake over time
- Antagonism of TNF-α-induced phosphorylation of pro-inflammatory proteins (IκB) [6]: more potent than free Curcumin
